From patent US8252737B2, “Antimicrobial peptides and methods of use” (priority 2004, dated 2012)
≈ marks a conversion by molar mass, not a printed value.

Columns and labels:
[1] = system: Pseudomonas aeruginosa strains; settings: for MIC (μg/ml) CP 204: Pseudomonas aeruginosa clinical isolate CP 204; for MIC (μg/ml) M 2: Pseudomonas aeruginosa clinical isolate M 2; for MIC (μg/ml) PA 14: Pseudomonas aeruginosa clinical isolate PA 14; for MIC (μg/ml) PAK: Pseudomonas aeruginosa clinical isolate PAK; for MIC (μg/ml) PAO 1: Pseudomonas aeruginosa clinical isolate PAO 1; for MIC (μg/ml) WR 5: Pseudomonas aeruginosa clinical isolate WR 5; for MIC (μg/ml) GM: geometric mean of the MIC values for the 6 Pseudomonas aeruginosa clinical isolates
Experimental: Pseudomonas aeruginosa strains used in this study are a diverse group of clinical isolates from different places in the world. […] The geometric mean MIC values from six Pseudomonas aeruginosa strains were calculated to provide an overall evaluation of antimicrobial activity of these peptides against Pseudomonas aeruginosa. Fold improvement was calculated by comparing the geometric mean MIC value of each peptide to that of the parent peptide V681.
Measurement of Antimicrobial Activity—Minimal inhibitory concentrations (MICs) were determined using a standard microtiter dilution method in LB (Luria-Bertani) no-salt medium (10 g of tryptone and 5 g of yeast extract per liter). Briefly, cells were grown overnight at 37° C. in LB and diluted in the same medium. […] Plates were incubated at 37° C. for 24 hours and MICs determined as the lowest peptide concentration that inhibited growth. Alternatively, minimal inhibitory concentrations were determined using a standard microtiter dilution method in a Mueller-Hinton (MH) medium. Briefly, cells were grown overnight at 37° C. in MH broth and diluted in the same medium. […] Plates were incubated at 37° C. for 24 hours and MICs determined as the lowest peptide concentration that inhibited growth. However, for MIC determination of Pseudomonas aeruginosa clinical isolates, brain heart infusion (BH1) medium was used instead of MH broth. In addition, the bacteria were diluted to a final inoculum of 1×10^6 colony-forming units/ml.
For the Leu-substituted peptides, the hemolytic activity against human erythrocytes was determined as the maximal peptide concentration that produces no hemolysis after 18 hours of incubation at 37° C. Antimicrobial activity of the peptides was determined on a diverse group of Pseudomonas aeruginosa clinical isolates. […] The geometric mean MIC values from six Pseudomonas strains in Table 14 were calculated to provide an overall evaluation of antimicrobial activity of the peptides with different hydrophobicities.

[2] = system: human erythrocytes; experiment: Hemolytic activity (MHC), Protocol B, 18 hours; settings: maximal peptide concentration showing no hemolysis after 18 hours, hRBC, Table 14
Experimental: In order to evaluate the biological activities of the D-enantiomeric peptides, namely D-NAL and D-NKD, the hemolytic activity of the peptides against human erythrocytes was determined as the maximal peptide concentration that produces no hemolysis after 18 hours of incubation at 37° C.
(§1) Measurement of Hemolytic Activity—Protocol A: Peptide samples were added to 1% human erythrocytes in phosphate buffered saline (0.08M NaCl; 0.043M Na2PO4; 0.011M KH2PO4) and reactions were incubated at 37° C. for 12 hours in microtiter plates. Peptide samples were diluted 2 fold in order to determine the concentration that produced no hemolysis. […] Hemoglobin release was determined spectrophotometrically at 562 nm. The hemolytic titer was the highest 2-fold dilution of the peptide that still caused release of hemoglobin from erythrocytes. The control for no release of hemoglobin was a sample of 1% erythrocytes without any peptide added. […] Peptide samples were diluted 2 fold in order to determine the concentration that produced no hemolysis. […] Hemoglobin release was determined spectrophotometrically at 570 nm. The hemolytic titer was the highest 2-fold dilution of the peptide that still caused release of hemoglobin from erythrocytes. The control for no release of hemoglobin was a sample of 1% erythrocytes without any peptide added.

[3] = Circular dichroism spectroscopy of helical structure (benign buffer and 50% TFE); assay type: physicochemical; settings: 25° C.
Experimental: To determine the secondary structure of peptides in different environments, circular dichroism (CD) spectra of the peptide analogs were measured under physiologically related pH and ionic strength (100 mM KCl, 50 mM aq. PO4, pH 7 referred to as benign conditions) and also in 50% TFE to mimic the hydrophobic environment of the membrane. […] On the non-polar face, the native L-Val residue was critical in maintaining α-helical structure. […] Even the substitution with L-Ala, which is known to have the highest α-helical propensity of all 20 amino acids (34), could not stabilize the α-helical structure. […] It is noteworthy that, on the non-polar face, the magnitude of the helical content of L-peptides in benign buffer was related to the hydrophobicity of the substituting amino acids, i.e., NLL>NVL>NAL>NSL, NKL, again showing the importance of hydrophobicity on the non-polar face in maintaining the α-helical structure. […] However, whether L- or D-substitutions were made on the non-polar face, high helical structure could be induced by the hydrophobic environment of 50% TFE, a mimic of the membrane's hydrophobicity and α-helix inducing ability (Table 3).
To determine the secondary structure of the D-enantiomeric peptides in different environments, CD spectra of the peptide analogs were measured under benign conditions (100 mM KCl, 50 mM KH2PO4/K2HPO4, pH 7.4, referred to as KP buffer) and also in 50% trifluoroethanol (TFE) to mimic the hydrophobic environment of the membrane. […] However, in the presence of 50% TFE, all three L-peptides were fully folded α-helical structures with similar ellipticities and helicity (Table 4).
Characterization of Helical Structure—The mean residue molar ellipticities of peptides were determined by circular dichroism (CD) spectroscopy, using a Jasco J-720 spectropolarimeter (Jasco, Easton, Md.), at 25° C. under benign conditions (50 mM KH2PO4/K2HPO4/100 mM KCl, pH 7), as well as in the presence of an α-helix inducing solvent, 2,2,2-trifluoroethanol (TFE) (50 mM KH2PO4/K2HPO4/100 mM KCl, pH 7 buffer/50% TFE). A 10-fold dilution of a ˜500 μM stock solution of the peptide analogs was loaded into a 0.02 cm fused silica cell and its ellipticity scanned from 190 to 250 nm. The values of molar ellipticities of the peptide analogs at a wavelength of 222 nm were used to estimate the relative α-helicity of the peptides.

[4] = RP-HPLC temperature profiling (hydrophobicity and self-association/dimerization parameter PA); assay type: physicochemical
Experimental: The retention time data for the peptides is shown in Table 5 which records retention times at 5° C., the maximal retention times and retention times at 80° C. during the temperature profiling. Temperatures of 5° C. and 80° C. were the lower and upper temperature limits of temperature profiling in RP-HPLC, representing dimerization of the peptides at 5° C. and the monomerization of peptides at 80° C. due to dissociation of the dimers. The maximal retention times represent the threshold points at which peptides transform from dimeric to monomeric form. Among the non-polar face substituted peptides, peptides with more hydrophobic substitutions (whether L- or D-amino acid substitutions) were more retained during RP-HPLC, i.e., peptides were eluted in the order of Lys, Gly, Ser, Ala, Val and Leu (Table 5). In addition, on the non-polar face, the L-analogs were always more retained than the D-diastereomers (Table 5, FIG. 5). […] In contrast, on the polar face, the elution order of peptides was not correlated with the order of amino acid side-chain hydrophobicity, e.g., PAL and PSL were more retained than PVL (Table 5); PSD was the most retained peptide among the D-amino acid substituted analogs on the polar face (Table 5).
The ability of the D-peptides to self-associate was determined by RP-HPLC temperature profiling. […] As expected, L- and D-peptide enantiomers were totally inseparable over this temperature range, since each pair of peptides is identical in sequence and must adopt identical conformations on interacting with the reversed-phase matrix, whether in an all-L- or all-D-conformation. RP-HPLC retention behavior has been frequently utilized to represent overall peptide hydrophobicity (53, 26). In the present study, the hydrophobicity of the three peptide pairs is in the order V681/D-V681>[…]>NKL/D-NKD (Table 4), which agrees with the change in hydrophobicity of the substitutions at position 13 in order of the most hydrophobic to the least hydrophobic amino acid residue (Val in V681>Ala in NA>Lys in NK) (54). […] For example, the retention times of peptides V681/D-V681 increase with increasing temperature (up to ˜30° C.) followed by a retention time decrease with a further temperature increase. […] Since peptide C is a monomeric random coil peptide in both aqueous and hydrophobic media, its retention behavior over the temperature range 5° C. to 80° C. represents only general temperature effects on peptide retention behavior, i.e., a linear decrease in peptide retention time with increasing temperature due to greater solute diffusivity and enhanced mass transfer between the stationary and mobile phases at higher temperatures (55). Thus, after normalization to the retention times of peptide C, the retention behavior of the peptides represents only peptide self-association ability. Note that the higher the PA value, the greater the self-association ability. […] From Table 4, it is also clear that the peptide retention times at 80° C. are dramatically lower than those at 5° C.
Elution times during RP-HPLC have frequently been utilized as a measure of relative hydrophobicity of peptide analogs (26, 31). In the current study, peptide analogs differed only by a single amino acid substitution on either the non-polar face or the polar face of V681; thus, the retention time data in Table 5 can be considered to reflect the hydrophobicity difference between peptide analogs. In order to more easily visualize the variation in hydrophobicity of the peptide analogs, the retention time data in Table 5 were normalized relative to that of the native peptide V681 at 5° C. and 80° C., respectively. Hydrophobicity relative to the native peptide V681 indicates an increase or decrease of the apparent peptide hydrophobicity with the different amino acid substitutions on the polar or non-polar face. […]

[5] = system: human erythrocytes; experiment: Hemolytic activity (MHC), Protocol A, 12 hours; settings: incubation for 12 hours at 37° C. (Tables 7 and 8)
Experimental: as §1

Compound	MIC (μg/ml) CP 204 [1]	MIC (μg/ml) M 2 [1]	MIC (μg/ml) PA 14 [1]	MIC (μg/ml) PAK [1]	MIC (μg/ml) PAO 1 [1]	MIC (μg/ml) WR 5 [1]	MIC (μg/ml) GM [1]	Hemolytic activity MHC [2]	% helix 50% TFE ([3]; 50% TFE, relative to NAL in 50% TFE)	[θ]222 Benign ([3]; benign buffer (100 mM KCl, 50 mM PO4 pH 7.0))	[θ]222 50% TFE ([3]; benign buffer diluted 1:1 (v/v) with TFE)	% helix Benign ([3]; benign buffer, relative to NAL in 50% TFE)	tR (min) 5° C. ([4]; RP-HPLC retention time at 5° C. during temperature profiling (measure of hydrophobicity))	tR (min) 80° C. ([4]; RP-HPLC retention time at 80° C. during temperature profiling)	tR (min) Max ([4]; maximal RP-HPLC retention time during temperature profiling 5-80° C.)	PA (min) association parameter ([4]; maximal retention time difference relative to control peptide C within 5-80° C.)	ΔtR (X-PSL) (min) 5° C. ([4]; polar face substitutions, retention time difference relative to native peptide V681 (PSL) at 5° C., relative hydrophobicity)	ΔtR (X-PSL) (min) 80° C. ([4]; polar face substitutions, retention time difference relative to native peptide V681 (PSL) at 80° C., relative hydrophobicity)	minimal hemolytic concentration (MHC) [5]
CC[C@H](C)[C@H](NC(=O)[C@H](C)NC(=O)[C@H](CCCCN)NC(=O)[C@H](CC(C)C)NC(=O)[C@H](C)NC(=O)[C@@H](NC(=O)[C@H](Cc1c[nH]cn1)NC(=O)[C@H](CC(C)C)NC(=O)[C@@H](NC(=O)[C@@H](NC(=O)[C@H](CCCCN)NC(=O)[C@H](CCCCN)NC(=O)[C@H](CC(C)C)NC(=O)[C@H](CO)NC(=O)[C@H](CCCCN)NC(=O)[C@H](Cc1ccccc1)NC(=O)[C@@H](NC(=O)[C@H](CCCCN)NC(=O)[C@H](CC(C)C)NC(=O)[C@H](Cc1ccccc1)NC(=O)[C@H](CO)NC(=O)[C@H](CCCCN)NC(=O)[C@H](Cc1c[nH]c2ccccc12)NC(=O)[C@H](CCCCN)NC(C)=O)[C@@H](C)O)[C@@H](C)O)C(C)C)[C@@H](C)O)C(=O)N[C@@H](CO)C(=O)N[C@@H](CO)C(N)=O [Peptide A12L]	15.6 µg/mL (≈ 5.14 µM)	15.6 µg/mL (≈ 5.14 µM)	31.3 µg/mL (≈ 10.3 µM)	31.3 µg/mL (≈ 10.3 µM)	15.6 µg/mL (≈ 5.14 µM)	62.5 µg/mL (≈ 20.6 µM)	24.8 µg/mL (≈ 8.18 µM)	31.3 µg/mL	–	–	–	–	–	–	–	–	–	–	–
Ac-KWKSFLKTFKSAKKTVLHTALKLISS-NH2 [Peptide A23L]	15.6 µg/mL	31.3 µg/mL	31.3 µg/mL	62.5 µg/mL	31.3 µg/mL	62.5 µg/mL	35.1 µg/mL	62.5 µg/mL	–	–	–	–	–	–	–	–	–	–	–
Ac-KWKSFLKTFKVAVKTVLHTALKAISS-NH2 [PVL]	–	–	–	–	–	–	–	–	80%	−7,550 deg · cm^2 · dmol^−1	−23,050 deg · cm^2 · dmol^−1	26%	47.83 min	46.18 min	49.93 min	3.91 min	-0.27 min	0.35 min	7.8 µg/mL
